Experimental data: patent US20170128407A1, “NOVEL FORMULATIONS” (priority 2015, published 2017)
In brackets after ≈: the same amount, converted by molar mass. Read-outs that look alike come from different tables or passages of the source.

Assays:
[1] = cited from earlier work
[2] = in water and propylene glycol, storage; cited from earlier work
[3] = BPO solubility in water and in binary mixtures with surfactants; details: water
Excerpt: The concentration of all surfactants was fixed at 6% w/w active.

[4] = Chemical stability of BPO in wash formulations, shelf life prediction; format: physicochemical; details: wash formulations with increasing sorbitol concentrations
Experimental: BPO stability in the formulations of the present invention were assessed over time at 25° C./60% RH and 30° C./65% RH using environmentally controlled chambers. Specifically formulations containing 2.5% BPO or 10% BPO in glass vials were placed on stability, and monitored for BPO degradation.
Chemical stability of the BPO in surfactant based wash products is a challenge due to increased solubility of the BPO in these systems.

SMILES	half-life of BPO in solution in water ([1]; pH 4)	half-life of BPO in solution in water ([1]; pH 7)	stability of benzoyl peroxide in suspension (dispersed form) [2]	solubility [3]	effect on BPO stability (benzoic acid generated) [4]
O=C(OOC(=O)c1ccccc1)c1ccccc1 [BPO, Benzoyl peroxide]	11.87 h	5.20 h	not degraded after 90 days	3 µg/mL (≈ 12.4 µM)	–
OC[C@@H](O)[C@@H](O)[C@H](O)[C@@H](O)CO [sorbitol, D-Sorbitol]	–	–	–	–	improve BPO stability
